Source: publication PMC5589751, “Synthesis, high-throughput screening and pharmacological characterization of β–lactam derivatives as TRPM8 antagonists” (Scientific Reports, 2017)
Values joined by “and” are separate entries in the source; they are usually repeats but may differ in a detail not shown here. Equal entries are not always repeated.

Tests used:
Format in all cases: cell-based
TRPM8 = biological target: T1, TRPM8 (Rattus norvegicus, UniProt Q8R455); assay: Whole-cell patch clamp in TRPM8-expressing HEK-CR1 cells (menthol, voltage, cold); details: for effect on menthol-evoked TRPM8 current at 1 µM / IC50: 500 µM menthol; for effect on cold-evoked TRPM8 current: cold 16 °C; for IC50: whole cell, ratio P2/P1, read-out: IC50, TRPM8 activity evoked by menthol (patch clamp); for Hill coefficient nH: dose-response against 500 µM menthol
T1 construct: expressed in transfected cells
Description: As depicted in Fig. 3, perfusion with 500 µM menthol activated a large TRPM8 inward current at −60 mV (Fig. 3, control). […] The extent of TRPM8 activity shown in Fig. 3 corresponds to the ratio of channel activity between the second (P2) and the first (P1) pulses (ratio P2/P1) of menthol in order to take into account the channel desensitization (supplementary information Fig. 3S)[36], [37].
Left: Representative whole-cell voltage clamp recordings from TRPM8-expressing HEK-CR1 cells and compound 41 (A) and 45 (B). Voltage was held at −60 mV. Pre-application of compounds (20 s) was followed by co-application with 500 µM menthol (Control) for 20s. Current traces of different colours denote the different concentrations of compounds tested. Right: Dose response of compound 41 (A, red), 45 (B, blue) TRPM8 blocked activity. Solid line depicts the fitting to a Hill equation. Data are given as mean ± SEM, with n > 4 cells per data point.
Figure 4 Compound 41 abolished the voltage-evoked response on TRPM8. (A) Representative families of TRPM8 ionic currents in absence (Control) or presence of 1 μM 41 elicited with a voltage step protocol consisting of 200-ms depolarizing pulses from −60 to +120 mV in steps of 20 mV (inset). Holding potential −60 mV, time between pulses = 5s. (B) I-V relationships of TRPM8 channel activity in the absence (black) and presence of 1 µM 41 (red).
Figure 5 Compound 41 abolished the cold thermal activity response on TRPM8. Left: Representative families of TRPM8 ionic currents at +80mV in absence (A) or presence of 1µM 41 (B) activated by cold temperature (16 °C) obtained with a 300-ms ramp from −80 to +80 mV in intervals of 2 s during 3 minutes. Holding potential −60 mV. Right: I-V relationships of TRPM8 channel in basal conditions (a, black line), activated by cold in the absence (b, green line) and presence of 1 µM 41 (c, blue line). (C) Ratio currents between pulse 2 and pulse 1 induced by menthol in the absence (black bar) or in the presence (blue bar) of compound 41.
(§1) Electrophysiological recording was carried out 1–3 d after cells seeded. Membrane currents and voltages were recorded by patch clamp using the whole-cell configuration. For whole-cell recordings of HEK-hTRPV1 and HEK-TRPM8 cells, pipette solution contained (in mM) 140 CsCl, 5 EGTA, and 10 HEPES, adjusted to pH 7.2 with CsOH, and bath solution contained (in mM) 140 NaCl, 5 KCl, 2 CaCl2, 2 MgCl2, 5 EGTA, 10 D-glucose, 10 Mannitol and 10 HEPES, adjusted to pH 7.4 with NaOH. In calcium-free bath solution, CaCl2 was replaced with 5mM EGTA. For potassium and sodium recordings, CsCl was substituted by KCl and the pH was adjusted to pH 7.2 with KOH. Patch pipettes were prepared from thin-walled borosilicate glass capillaries (World Precision Instruments, Sarasota, FL, USA), pulled with a horizontal puller (P-97, Sutter Instruments, Novato, CA, USA) to have a tip resistance of 2–4 MΩ when filled with internal solutions. Data were sampled at 10 kHz (EPC10 amplifier with PatchMaster 2.53 software, HEKA Electronics, Lambrecht, Germany) and low-pass filtered at 3 kHz for analysis (PatchMaster 2.53 and GraphPad Prism 5, Graphpad Software, USA). The series resistance was <10 MΩ and to minimize voltage errors was compensated to 60–80%. All measurements were performed at 24–25°C. The temperature was adjusted with a water-cooled Peltier device placed at the inlet of the chamber and controlled by a feedback device (Automatic Temperature Controller TC-324B, Warner Instruments). Cold-sensitivity was investigated with a temperature decrease to 16–18 °C.

hTRPV1 = biological target: T2, hTRPV1 (Homo sapiens, UniProt Q8NER1); assay: Whole-cell patch clamp in cells expressing hTRPV1
T2 construct: expressed in transfected cells; host or cells: HEK
Description: Electrophysiological recording was carried out 1-3 d after cells seeded. Membrane currents and voltages were recorded by patch clamp using the whole-cell configuration. […] In calcium-free bath solution, CaCl2 was replaced with 5mM EGTA. For potassium and sodium recordings, CsCl was substituted by KCl and the pH was adjusted to pH 7.2 with KOH. Patch pipettes were prepared from thin-walled borosilicate glass capillaries (World Precision Instruments, Sarasota, FL, USA), pulled with a horizontal puller (P-97, Sutter Instruments, Novato, CA, USA) to have a tip resistance of 2-4 MΩ when filled with internal solutions. Data were sampled at 10 kHz (EPC10 amplifier with PatchMaster 2.53 software, HEKA Electronics, Lambrecht, Germany) and low-pass filtered at 3 kHz for analysis (PatchMaster 2.53 and GraphPad Prism 5, Graphpad Software, USA). The series resistance was <10 MΩ and to minimize voltage errors was compensated to 60-80%. All measurements were performed at 24-25°C. The temperature was adjusted with a water-cooled Peltier device placed at the inlet of the chamber and controlled by a feedback device (Automatic Temperature Controller TC-324B, Warner Instruments). Cold-sensitivity was investigated with a temperature decrease to 16-18 °C. page 44: Figure 1S. […] A) […] compound 41 (blue line). Pre-application of compound (20 s) was followed by coapplication with 500 […] 41. […] C) […] Pre-application of […] Voltage was held at -60 mV for all the experiments. […] (1 picture or pasted object on this page, not shown here)

Kv1.1 = Kv1.1 (Homo sapiens, UniProt Q09470); assay: Whole-cell patch clamp in cells expressing Kv1.1
Description: as §1, with “The temperature was adjusted with a water-cooled Peltier device placed at the inlet of the chamber and controlled by a feedback device (Automatic Temperature Controller TC-324B, Warner Instruments). Cold-sensitivity was investigated with a temperature decrease to 16–18 °C.” left out

T2 sequence (Q8NER1 whole entry): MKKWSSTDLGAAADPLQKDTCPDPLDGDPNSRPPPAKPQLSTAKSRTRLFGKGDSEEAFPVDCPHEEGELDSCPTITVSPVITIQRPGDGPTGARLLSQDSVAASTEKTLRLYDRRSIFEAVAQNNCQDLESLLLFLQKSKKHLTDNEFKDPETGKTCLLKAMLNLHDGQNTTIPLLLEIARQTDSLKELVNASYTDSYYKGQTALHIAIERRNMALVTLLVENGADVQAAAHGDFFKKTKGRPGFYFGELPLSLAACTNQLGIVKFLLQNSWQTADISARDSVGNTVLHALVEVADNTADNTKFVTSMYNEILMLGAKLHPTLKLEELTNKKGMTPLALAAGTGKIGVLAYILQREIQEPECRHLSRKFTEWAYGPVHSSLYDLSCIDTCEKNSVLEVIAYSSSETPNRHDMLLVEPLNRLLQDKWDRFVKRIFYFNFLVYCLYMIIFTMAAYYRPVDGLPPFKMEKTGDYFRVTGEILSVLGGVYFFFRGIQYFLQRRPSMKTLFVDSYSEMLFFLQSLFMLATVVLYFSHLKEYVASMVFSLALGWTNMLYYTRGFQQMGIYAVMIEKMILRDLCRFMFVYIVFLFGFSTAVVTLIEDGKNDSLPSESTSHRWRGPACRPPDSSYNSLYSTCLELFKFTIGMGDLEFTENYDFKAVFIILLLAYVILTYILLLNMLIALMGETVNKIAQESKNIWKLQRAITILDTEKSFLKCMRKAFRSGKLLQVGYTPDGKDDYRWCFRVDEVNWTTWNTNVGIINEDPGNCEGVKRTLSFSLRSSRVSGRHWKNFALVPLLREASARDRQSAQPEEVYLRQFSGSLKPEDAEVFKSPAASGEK
T1 sequence (Q8R455 whole entry): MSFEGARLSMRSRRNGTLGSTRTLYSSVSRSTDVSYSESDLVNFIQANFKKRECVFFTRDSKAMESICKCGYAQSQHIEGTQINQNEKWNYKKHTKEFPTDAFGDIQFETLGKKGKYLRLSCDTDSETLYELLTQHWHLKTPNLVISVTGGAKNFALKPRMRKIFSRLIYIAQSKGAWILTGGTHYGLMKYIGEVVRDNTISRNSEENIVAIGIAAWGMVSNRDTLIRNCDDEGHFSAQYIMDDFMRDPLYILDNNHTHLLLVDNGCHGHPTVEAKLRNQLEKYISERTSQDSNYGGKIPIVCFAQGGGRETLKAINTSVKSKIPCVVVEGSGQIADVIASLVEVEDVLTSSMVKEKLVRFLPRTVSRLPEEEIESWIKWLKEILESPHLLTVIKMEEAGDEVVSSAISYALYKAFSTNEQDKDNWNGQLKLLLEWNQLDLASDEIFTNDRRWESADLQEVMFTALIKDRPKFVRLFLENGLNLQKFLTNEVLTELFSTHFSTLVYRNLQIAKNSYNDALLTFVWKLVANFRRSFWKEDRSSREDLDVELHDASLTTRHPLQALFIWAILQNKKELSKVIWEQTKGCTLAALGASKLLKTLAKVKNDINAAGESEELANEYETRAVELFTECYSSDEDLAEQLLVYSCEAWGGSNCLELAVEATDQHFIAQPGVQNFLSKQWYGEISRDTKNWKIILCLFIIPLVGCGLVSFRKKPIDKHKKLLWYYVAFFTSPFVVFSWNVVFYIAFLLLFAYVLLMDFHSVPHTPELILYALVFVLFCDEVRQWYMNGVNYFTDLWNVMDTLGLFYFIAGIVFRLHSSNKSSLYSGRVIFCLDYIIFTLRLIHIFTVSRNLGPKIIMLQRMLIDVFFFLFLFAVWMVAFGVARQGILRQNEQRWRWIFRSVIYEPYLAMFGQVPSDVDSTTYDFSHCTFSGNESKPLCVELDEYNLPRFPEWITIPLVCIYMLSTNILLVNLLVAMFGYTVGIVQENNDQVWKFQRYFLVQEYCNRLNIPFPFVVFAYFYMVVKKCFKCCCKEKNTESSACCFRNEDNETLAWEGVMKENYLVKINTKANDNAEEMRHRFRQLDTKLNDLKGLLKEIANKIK
Chain of Kv1.1 (Q09470 whole entry): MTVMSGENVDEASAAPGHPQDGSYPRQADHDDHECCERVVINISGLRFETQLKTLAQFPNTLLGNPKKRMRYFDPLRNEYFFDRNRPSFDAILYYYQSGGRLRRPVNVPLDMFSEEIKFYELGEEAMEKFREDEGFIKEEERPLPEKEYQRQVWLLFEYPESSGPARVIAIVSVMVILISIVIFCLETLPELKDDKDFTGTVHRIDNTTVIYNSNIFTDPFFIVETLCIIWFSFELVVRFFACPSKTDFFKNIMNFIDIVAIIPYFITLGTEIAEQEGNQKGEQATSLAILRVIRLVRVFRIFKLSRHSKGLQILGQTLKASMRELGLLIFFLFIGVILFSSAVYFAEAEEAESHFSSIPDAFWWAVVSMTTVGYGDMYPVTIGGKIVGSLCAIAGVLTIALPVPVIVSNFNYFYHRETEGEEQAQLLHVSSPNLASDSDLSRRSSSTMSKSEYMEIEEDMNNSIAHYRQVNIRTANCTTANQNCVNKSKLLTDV

Compound	effect on menthol-evoked TRPM8 current at 1 µM (TRPM8; 1 µM compound)	effect on cold-evoked TRPM8 current (TRPM8; 1 µM compound)	reduction of voltage-mediated TRPM8 activity (TRPM8; 1 µM compound, depolarizing voltage +120 mV)	agonist activity (activation) on TRPM8 (TRPM8; 1 µM compound, −60 mV)	reversibility of TRPM8 block (TRPM8; 1 µM, menthol pulse four minutes after removal of compound)	IC50 (TRPM8; −60 mV)	Hill coefficient nH (TRPM8; −60 mV)	IC50 (hTRPV1)	agonist activity (activation) on TRPV1 (hTRPV1; 1 µM compound, −60 mV)	IC50 (Kv1.1)	effect on voltage-evoked TRPM8 outward currents (TRPM8; 1 µM compound)
CC(C)(C)OC(=O)N[C@@H](CCN1C(=O)CC1(Cc1ccccc1)C(=O)OCc1ccccc1)C(=O)OCc1ccccc1 (some centres unmarked) [Compound 41, 4R,S-Benzyl-4-benzyloxycarbonyl-1-[(3′S-benzyloxycarbonyl-3-tert-butoxycarbonylamino-3′-benzyloxycarbonyl)prop-1′-yl]-2-oxoazetidine]	almost totally absence of current	significant decrease in the current intensity	90 ± 2%	did not produce activation	reversible	46 nM	−1.5 ± 0.3	> 1000 nM	did not produce activation	> 1000 nM	
CC1C(=O)N(CC[C@H](NC(=O)OC(C)(C)C)C(=O)OCc2ccccc2)C1(Cc1ccccc1)C(=O)OCc1ccccc1 (stereo partly drawn) [Compound 45, 4R,S-Benzyl-4-benzyloxycarbonyl-1-[(3′S-benzyloxycarbonyl-3′-tert-butoxycarbonylamino)prop-1′-yl]-(3R,S)-methyl-2-oxoazetidine]	almost totally absence of current	reduce significantly				82.9 nM and 83 nM	−1.1 ± 0.2	> 1000 nM		> 1000 nM	reduce significantly
